Experimental data: patent publication US8637671B2, “Indole derivatives as CRTH2 receptor antagonists” (Merck Canada Inc., priority 2008, dated 2014)

biological target: T1, hCRTH2 (Homo sapiens, UniProt Q9Y5Y4); assay: Radioligand binding assay ([3H]PGD2 competition)
T1 sequence (Q9Y5Y4 1-395): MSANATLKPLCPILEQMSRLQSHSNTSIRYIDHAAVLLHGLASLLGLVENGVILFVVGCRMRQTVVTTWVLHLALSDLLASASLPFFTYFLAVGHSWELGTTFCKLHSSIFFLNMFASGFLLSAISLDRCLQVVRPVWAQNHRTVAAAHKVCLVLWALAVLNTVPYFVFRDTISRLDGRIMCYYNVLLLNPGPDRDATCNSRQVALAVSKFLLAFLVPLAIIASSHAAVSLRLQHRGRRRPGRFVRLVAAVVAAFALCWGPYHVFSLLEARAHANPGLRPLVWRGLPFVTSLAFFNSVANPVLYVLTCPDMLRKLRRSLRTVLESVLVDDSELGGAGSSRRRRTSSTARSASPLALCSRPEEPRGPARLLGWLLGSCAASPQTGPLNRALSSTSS
Method: Radioligand binding assay. […] Competing ligands were diluted in dimethylsulfoxide (Me2SO) that was kept constant at 1% (v/v) of the final incubation volume. The reaction was initiated by the addition of 8-20 μg of membrane protein prepared from a HEK-hCRTH2 cell line. Total and non-specific binding were determined in the absence and the presence of 10 μM PGD2, respectively. Under these conditions, specific binding (total minus non-specific) of the radioligand to the receptor reached equilibrium within 50 min and was stable up to 180 min. The reaction was routinely conducted for 60 min at room temperature and terminated by rapid filtration through prewetted Unifilters GF/C (Packard), using a Tomtec MachIII semi-automated harvester (for HEK-hCRTH2). The filters were then washed with 4 ml of the same buffer and residual radioligand bound to the filter was determined by liquid scintillation counting following equilibration in 25 μl Ultima Gold F™ (Unifilter) (Packard).

`CN(C(=O)CCc1ccccc1)[C@@H]1CCc2c(CC(=O)O)c3ccccc3n2C1` [Example 29, {(7R)-7-[methyl(3-phenylpropanoyl)amino]-6,7,8,9-tetrahydropyrido[1,2-a]indol-10-yl}acetic acid] and `CN(C(=O)C(C)(C)Cc1ccccc1)[C@@H]1CCc2c(CC(=O)O)c3ccccc3n2C1` [Example 26, {(7R)-7-[(2,2-dimethyl-3-phenylpropanoyl)(methyl)amino]-6,7,8,9-tetrahydropyrido[1,2-a]indol-10-yl}acetic acid] fall in the same range of Ki: 5 to 10 nM for the first, 5 to 10 nM for the second.

First: COC(C(=O)N(C)[C@@H]1CCc2c(CC(=O)O)c3ccccc3n2C1)c1ccccc1 (stereo partly drawn) [Example 36, {(7R)-7-[[-2-methoxy-2-phenylacetyl](methyl)amino]-6,7,8,9-tetrahydropyrido[1,2-a]indol-10-yl}acetic acid]
Second: CC(C(=O)N(C)[C@@H]1CCc2c(CC(=O)O)c3ccccc3n2C1)c1ccccc1 (stereo partly drawn) [Example 30, ((7R)-7-{methyl [2-phenylpropanoyl]amino}-6,7,8,9-tetrahydropyrido[1,2-a]indol-10-yl)acetic acid]
The Ki of the first is higher: 10 to 50 nM for the first, no more than 5 nM for the second.

Compared with `O=C(O)Cc1c2n(c3ccccc13)C[C@H](N(Cc1ccc(F)cc1)C(=O)Cc1ccc(F)cc1)CC2` [Example 3, ((7R)-7-{(4-fluorobenzyl)[(4-fluorophenyl)acetyl]amino}-6,7,8,9-tetrahydropyrido[1,2-a]indol-10-yl)acetic acid], `CN(C(=O)Cc1ccc(F)cc1Br)[C@@H]1CCc2c(CC(=O)O)c3ccccc3n2C1` [Example 34, {(7R)-7-[[(2-bromo-4-fluorophenyl)acetyl](methyl)amino]-6,7,8,9-tetrahydropyrido[1,2-a]indol-10-yl}acetic acid] is higher in Ki: no more than 5 nM for the first, 50 to 100 nM for the second. The first binds more tightly here.

`CN(C(=O)C1(c2ccc(Cl)cc2)CCCC1)[C@@H]1CCc2c(CC(=O)O)c3ccccc3n2C1` [Example 20, {(7R)-7-[{[1-(4-chlorophenyl)cyclopentyl]carbonyl}(methyl)amino]-6,7,8,9-tetrahydropyrido[1,2-a]indol-10-yl}acetic acid] and `CN(C(=O)C1(c2ccc(F)cc2)CC1(C)C)[C@@H]1CCc2c(CC(=O)O)c3ccccc3n2C1` (stereo partly drawn) [Example 35, {(7R)-7-[{[1-(4-fluorophenyl)-2,2-dimethylcyclopropyl]carbonyl}(methyl)amino]-6,7,8,9-tetrahydropyrido[1,2-a]indol-10-yl}acetic acid] cannot be ordered by Ki: no more than 5 nM for the first, no more than 5 nM for the second.
